Measurements: the supplement of paper PMC13380429

What was measured:
Conditions in all cases: 72 h
HepG2 [1] = test: cell viability relative to DMSO; higher = less toxic
Vero E6 [2] = test: as above
Calu-3 [3] = test: as above
Caco-2 [4] = test: as above
U2OS [5] = test: as above
HepG2 [6] = test: relative viability EC50 (midpoint between 100% and the lowest measured viability); higher = less toxic
Vero E6 [7] = test: as above
Calu-3 [8] = test: as above
Caco-2 [9] = test: as above
U2OS [10] = test: as above
HepG2 [11] = test: drug sensitivity score (DSS) for viability; higher = more toxic; extreme values may be limits of the assay
Vero E6 [12] = test: as above
Calu-3 [13] = test: as above
Caco-2 [14] = test: as above
U2OS [15] = test: as above

SMILES | cell viability (HepG2 [1]; 1 nM) [%] | cell viability (HepG2 [1]; 10 nM) [%] | cell viability (HepG2 [1]; 100 nM) [%] | cell viability (HepG2 [1]; 1000 nM) [%] | cell viability (HepG2 [1]; 10000 nM) [%] | cell viability (Vero E6 [2]; 1 nM) [%] | cell viability (Vero E6 [2]; 10 nM) [%] | cell viability (Vero E6 [2]; 100 nM) [%] | cell viability (Vero E6 [2]; 1000 nM) [%] | cell viability (Vero E6 [2]; 10000 nM) [%] | cell viability (Calu-3 [3]; 1 nM) [%] | cell viability (Calu-3 [3]; 10 nM) [%] | cell viability (Calu-3 [3]; 100 nM) [%] | cell viability (Calu-3 [3]; 1000 nM) [%] | cell viability (Calu-3 [3]; 10000 nM) [%] | cell viability (Caco-2 [4]; 1 nM) [%] | cell viability (Caco-2 [4]; 10 nM) [%] | cell viability (Caco-2 [4]; 100 nM) [%] | cell viability (Caco-2 [4]; 1000 nM) [%] | cell viability (Caco-2 [4]; 10000 nM) [%] | cell viability (U2OS [5]; 1 nM) [%] | cell viability (U2OS [5]; 10 nM) [%] | cell viability (U2OS [5]; 100 nM) [%] | cell viability (U2OS [5]; 1000 nM) [%] | cell viability (U2OS [5]; 10000 nM) [%] | relative viability EC50 (HepG2 [6]) [µM] | relative viability EC50 (Vero E6 [7]) [µM] | relative viability EC50 (Calu-3 [8]) [µM] | relative viability EC50 (Caco-2 [9]) [µM] | relative viability EC50 (U2OS [10]) [µM] | drug sensitivity score (HepG2 [11]) | drug sensitivity score (Vero E6 [12]) | drug sensitivity score (Calu-3 [13]) | drug sensitivity score (Caco-2 [14]) | drug sensitivity score (U2OS [15])
COc1ccc(NS(=O)(=O)c2ccc(N)cc2)nn1 [sulfamethoxypyridazine] | 99.7 | 114 | 110 | 97.2 | 98.8 | 103 | 100 | 97.1 | 98.6 | 104 | 93.3 | 93.5 | 100 | 97.4 | 95.6 | 97.9 | 99.8 | 94.8 | 101 | 98.2 | 99.9 | 94.3 | 97.4 | 101 | 99.7 | > 10 | > 10 | > 10 | > 10 | > 10 | 0 | 0 | 0 | 0 | 0
CC(C)[C@H](C(=O)Nc1ccc(C(=O)NO)cc1)c1ccccc1 [AR-42] | 91.7 | 103 | 75.3 | 18.6 | 0 | 97 | 95.4 | 88.7 | 5.2 | -0.1 | 96.5 | 90.5 | 83 | 36 | 12 | 101 | 95 | 97.6 | 18 | 1.2 | 98.9 | 97.3 | 86.5 | 15.4 | 0.3 | 0.271 | 0.26 | 0.371 | 0.498 | 0.328 | 18 | 18.9 | 14.2 | 15.3 | 17.2
Cc1ccccc1N1CCN(CCc2nnc3n2CCCC3)CC1 [dapiprazole] | 99.8 | 104 | 92.9 | 94.3 | 102 | 92.9 | 93.2 | 97.6 | 98.9 | 92.8 | 106 | 102 | 92.9 | 102 | 101 | 106 | 99.9 | 86.9 | 98 | 92.5 | 99.2 | 105 | 96.2 | 106 | 102 | > 10 | > 10 | > 10 | > 10 | > 10 | 0 | 0 | 0 | 0 | 0
COc1ccc2cc3[n+](cc2c1OC)CCc1cc2c(cc1-3)OCO2 [berberine] | 99.8 | 103 | 87.7 | 92.1 | 30.6 | 107 | 93 | 95.3 | 107 | 96.1 | 94.3 | 101 | 105 | 101 | 97.3 | 110 | 106 | 97.4 | 86.9 | 82.5 | 106 | 96.8 | 103 | 93.7 | 77.2 | 2.23 | > 10 | > 10 | > 10 | > 10 | 5.1 | 0 | 0 | 1.5 | 1.6
C=C1/C(=C\C=C2/CCC[C@]3(C)[C@@H]([C@H](C)/C=C/C=C/C(O)(CC)CC)CC[C@@H]23)C[C@@H](O)C[C@@H]1O [seocalcitol] | 104 | 97.3 | 99.3 | 112 | 99.4 | 96 | 93.5 | 88.7 | 96.6 | 96.7 | 107 | 102 | 99.2 | 95.7 | 94.9 | 98.5 | 87.2 | 97.4 | 98.5 | 97.4 | 99.9 | 95.5 | 105 | 96.5 | 89.6 | > 10 | > 10 | > 10 | > 10 | > 10 | 0 | 0 | 0 | 0 | 0
COCCCN1CCC(NC(=O)c2cc(Cl)c(N)c3c2OCC3)CC1 [prucalopride] | 96.7 | 102 | 96.5 | 91 | 96.5 | 106 | 103 | 105 | 101 | 95 | 104 | 97 | 90.1 | 97.6 | 94.9 | 102 | 82.8 | 102 | 102 | 101 | 96.9 | 97.7 | 97.7 | 97.9 | 102 | > 10 | > 10 | > 10 | > 10 | > 10 | 0 | 0 | 0 | 0 | 0
CC(C)(C=O)Cc1cc(C(C)(C)C)c(O)c(C(C)(C)C)c1 | 97.2 | 96.1 | 108 | 99.9 | 90.9 | 97.1 | 97.8 | 103 | 98.4 | 101 | 102 | 98.8 | 91.2 | 100 | 102 | 92.7 | 97.6 | 97.6 | 90.4 | 96.7 | 106 | 103 | 104 | 98.1 | 102 | > 10 | > 10 | > 10 | > 10 | > 10 | 0 | 0 | 0 | 0 | 0
